# In US20070060638A1, “Methods and therapies for potentiating therapeutic activities of a cannabinoid receptor agonist via administration of a cannabinoid receptor antagonist” (priority 2005, published 2007):
# Experiments:
# [1] = system: Male Long-Evans rats (tail flick, thermal nociception); experiment: Rat tail flick test, single intravenous injection; assay type: in vivo; conditions: for tail flick latency (MPE) compared with same dose of WIN alone: i.v. single injection
# Method: (§1) Male Long-Evans rats (N=175) from Charles River (Montreal, QC, Canada) ranging from 230-380 grams, were housed in polycarbonate cages in pairs and given free access to food (Lab Diet, PMI Nutrition International, Inc., Brentwood, Mo., USA) and water. Animal quarters were kept on a reverse light-dark cycle (lights on from 7 pm to 7 am) and maintained at 22±2° C. and 45±20% relative humidity. Animals were given a minimum of 3 days prior to the experiment to acclimatize to the animal quarters.
# (§2) All injections were administered in a volume of 1 ml/kg. All chemicals were dissolved in 5% dimethyl sulfoxide (DMSO; Sigma, Oakville, ON, Canada), 0.3% polyoxyethylenesorbitan monooleate (Tween® 80; Sigma, Oakville, ON, Canada) and 94.7% saline vehicle, and administered intravenously in the posterior ⅓ of the lateral tail vein.
# For single injection testing, vehicle alone was used as a control injection (n=8).
# (§3) The tail flick apparatus consisted of a projection lamp that creates radiant heat located just below the animal-testing surface (D'Amour, E. E. and Smith, D. L. J. Pharmacol. Exp. Ther. 1941 72:74-79). The light from the lamp projected through a small hole in the testing surface and was aimed at a photocell located 25 cm above the testing surface. A digital timer, connected to the apparatus, started when the heat source was activated. When the animal flicked its tail away from the heat source, the light from the projection lamp activated the photocell, simultaneously stopping the timer and turning off the lamp. The heat intensity was calibrated to result in baseline tail flick latencies of 2-3 seconds and a 10 second cutoff was used to minimize tissue damage.
# Nociceptive reflexes to a thermal stimulus were tested using the tail flick analgesia meter. This apparatus focuses a hot beam on the animal's tail. The time it takes for the rat to flick its tail away from the heat source is a measure of pain; the longer the animal leaves its tail on the hotspot, the greater the degree of pain relief. On the day prior to tail flick testing, animals were handled on the tail flick apparatus for 5-10 minutes to reduce stress-induced analgesia (Kelly, S. J. and Franklin, K. B., Neuropharmacology 1985 24:1019-1025; Terman et al., Science 1984 226:1270-1277). For single injection tested groups, animals were restrained in a small towel and a baseline tail flick latency was measured. Following the baseline measure, animals were given a drug injection and tail flick latencies were assessed every 10 minutes for 90 minutes. For the repeated injection groups, animals were given one drug injection every day for seven days. Prior to the first injection, a baseline tail flick latency was measured. Following this measure, animals were given a drug injection and tail flick latencies were assessed 10 minutes post-injection. […] Post injection tail flick latencies were assessed on days 1, 3, 5, and 7. For all animals, tail flick latencies were converted into a percent of maximal possible effect (MPE) using the equation: MPE=[(post-injection latency−baseline latency)/(10 s cutoff−baseline latency)]×100
# (§4) Separate two-way repeated measure ANOVAs were performed on the single injection groups, and repeated injection groups (see Example 2). Post-injection time (10-90 minutes for single injection groups) or day of injection (1-7 days for the repeated injection groups) were the within-subjects factors and drug group was the between-subjects factor. Whenever there were violations of sphericity, Huynh-Feldt corrections to the within-group degrees of freedom were reported. Because many drug group comparisons were irrelevant, a priori multiple comparisons were used to analyze the main drug effect using the Dunn's critical t-ratio. A corrected α of 0.005 was used for the single injection groups because there were 8 comparisons, and a corrected α of 0.01 was used for the repeated injection groups because there were 4 comparisons.
# [2] = system: Male Long-Evans rats (tail flick, thermal nociception); experiment: Rat tail flick test, repeated daily injections for 7 days (tolerance); assay type: in vivo; conditions: for tail flick latency thresholds compared with WIN alone: i.v. daily for 7 days
# Method: as §1, §2
# For repeated injection testing, vehicle alone was used as a control injection (n=8). […] The control group received 1.1 ng/kg ultra-low dose of SR alone.
# as §3
# Nociceptive reflexes to a thermal stimulus were tested using the tail flick analgesia meter. This apparatus focuses a hot beam on the animal's tail. The time it takes for the rat to flick its tail away from the heat source is a measure of pain; the longer the animal leaves its tail on the hotspot, the greater the degree of pain relief. On the day prior to tail flick testing, animals were handled on the tail flick apparatus for 5-10 minutes to reduce stress-induced analgesia (Kelly, S. J. and Franklin, K. B., Neuropharmacology 1985 24:1019-1025; Terman et al., Science 1984 226:1270-1277). For single injection tested groups, animals were restrained in a small towel and a baseline tail flick latency was measured. Following the baseline measure, animals were given a drug injection and tail flick latencies were assessed every 10 minutes for 90 minutes. For the repeated injection groups, animals were given one drug injection every day for seven days. Prior to the first injection, a baseline tail flick latency was measured. Following this measure, animals were given a drug injection and tail flick latencies were assessed 10 minutes post-injection. This time point was selected because it is the point at which maximal WIN-induced antinociception is detected in this protocol. Post injection tail flick latencies were assessed on days 1, 3, 5, and 7. For all animals, tail flick latencies were converted into a percent of maximal possible effect (MPE) using the equation: MPE=[(post-injection latency−baseline latency)/(10 s cutoff−baseline latency)]×100
# as §4, with “A corrected α of 0.005 was used for the single injection groups because there were 8 comparisons, and a corrected α of 0.01 was used for the repeated injection groups because there were 4 comparisons.” left out
SMILES,"tail flick latency (MPE) compared with same dose of WIN alone ([1]; SR 0.055 ng/kg mixed with WIN 0.0625 mg/kg, t(14)=3.28)","tail flick latency (MPE) compared with same dose of WIN alone ([1]; SR 0.083 ng/kg with WIN 0.09375 mg/kg, t(14)=8.16, P≦0.005)","tail flick latency (MPE) compared with same dose of WIN alone ([1]; SR 0.55 ng/kg in combination with WIN 0.0625 mg/kg, t(14)=6.72, P≦0.005)","tail flick latency (MPE) compared with same dose of WIN alone ([1]; SR 0.83 ng/kg with WIN 0.09375 mg/kg, t(14)=9.63, P≦0.005)","antinociceptive properties of WIN in rat tail flick test (FIG. 1A, 1B) ([1]; ultra-low dose SR (0.55, 0.055, 0.83, 0.083 ng/kg) with WIN (0.0625 or 0.09375 mg/kg), single i.v. injection)","tail flick latency thresholds compared with WIN alone ([2]; SR 0.11 ng/kg with WIN 0.125 mg/kg, t(14)=14.35, P≦0.01)","tail flick latency thresholds compared with WIN alone ([2]; SR 1.1 ng/kg with WIN 0.125 mg/kg, t(14)=9.77, P≦0.01)","prevention of WIN-induced tolerance / enhancement of antinociception ([2]; SR to WIN dose ratio 1:100,000)","prevention of WIN-induced tolerance / enhancement of antinociception ([2]; SR to WIN dose ratio 1:1,000,000, slightly (although not significant) better at preventing tolerance)","development of tolerance to the analgesic action of WIN in rat tail flick test (FIG. 2) ([2]; daily ultra-low dose SR (1.1 or 0.11 ng/kg) with WIN 0.125 mg/kg, i.v.)","degree of antinociception in the tail flick test ([1]; rat, in vivo)","tail flick latency (MPE) compared with vehicle ([1]; rat, in vivo)","tail flick latency compared with vehicle ([2]; WIN 0.125 mg/kg i.v. alone, daily for 7 days, tested days 1, 3, 5, 7, t(14)=10.44, P≦0.01)",degree of antinociception in the tail flick test ([2]; WIN alone at 0.125 mg/kg i.v.),"time point post-injection of maximal WIN-induced antinociception ([2]; tail flick, i.v.)"
"Cc1c(C(=O)NN2CCCCC2)nn(-c2ccc(Cl)cc2Cl)c1-c1ccc(Cl)cc1 [SR, N-(Piperidin-1-yl)-5-(4-chlorophenyl)-1-(2,4-dichlorophenyl)-4-methyl-1H-pyrazole-3-carboxamide]",no difference,longer tail flick latencies,longer tail flick latencies,longer tail flick latencies,enhanced,greater tail flick latency thresholds,greater tail flick latency thresholds,effective,effective,prevented the development of tolerance,–,–,–,–,–
"CS(=O)(=O)O.Cc1c(C(=O)c2cccc3ccccc23)c2cccc3c2n1[C@H](CN1CCOCC1)CO3 [WIN, (R)-(+)-[2,3-Dihydro-5-methyl-3-(4-morpholinylmethyl)pyrrolo[1,2,3-de]-1,4-benzoxazin-6-yl]-1-naphthalenylmethanone mesylate]",–,–,–,–,–,–,–,–,–,–,sub-maximal antinociception,no difference,greater tail flick latencies,maximal antinociception,10 min
